Experimental data reported in US9987278B2, “Pharmaceutical composition for treating FLT3 mutation-positive cancer, mutant FLT3 inhibitor and uses thereof” (FUJIFILM Corporation, priority 2014, dated 2018).
Where two headings read alike, the source gives them in different places.

Experiments:
[1] = biological target: mutant FLT3 protein (FLT3 D835Y) (Homo sapiens (Human), UniProt P36888, D835Y); test: Mutant FLT3 (FLT3 D835Y) enzyme inhibition assay; assay type: biochemical; conditions: ATP 15 μmol/L, read-out: IC50 value for an enzymatic activity of a mutant FLT3 protein
[2] = tested on: 32D FLT3/FL cells; test: Cell growth assay, FLT3/FLT3 ligand-coexpressing 32D cell line; assay type: cell-based; conditions: Mus musculus, 48 h, read-out: GI50 value for growth of FLT3 protein-expressing 32D cells
Procedure: RPMI1640 and DMEM were purchased from Life Technologies or SIGMA. The 32D cells were obtained from RIKEN Bioresource Center, and cultured in the presence of 5% CO2 at 37° C. using an RPMI1640 medium containing 1 ng/mL mouse IL-3, 10% fetal bovine serum (FBS), 100 U/mL penicillin and […] streptomycin. The PLAT-E cells were kindly provided by Dr. Kitamura Toshio of Tokyo University and cultured in a DMEM medium containing 1 μg/mL puromycin, 10 μg/mL blasticidin S, 10% FBS, 100 U/mL penicillin and […] streptomycin. […] A pGEM-T vector, FuGENE6 and CellTiter 96 AQueous One Solution Cell Proliferation Assay were purchased from Promega Corporation.
(§1) Individual cells were seeded onto a 96-well plate (Becton, Dickinson and Company) at a density of 1000 to 10000 cells/well, and the cell culture was started at 37° C. in the presence of 5% CO2. On the next day, the compound diluted in 3-fold common ratio was added to each well, followed by further culturing for 2 days. Then, in order to evaluate the cell viability, a CellTiter 96 AQueous One SolutionReagent was added to each well according to the Promega Corporation's protocol, followed by culturing for 1 hour. […] In a case where the absorbance is insufficient, the absorbance was measured after performing the culturing for another 1 to 2 hours.

[3] = tested on: 32D FLT3 D835Y cells; test: Cell growth assay, 32D FLT3 D835Y; assay type: cell-based; conditions: Mus musculus, 48 h, read-out: GI50 value for growth of FLT3 protein-expressing 32D cells
Procedure: (§2) After the virus-containing culture supernatant was added to the mouse hematopoietic precursor cell line 32D cells in the presence of 10 μg/mL polybrene, and the cells were cultured in the presence of 0.5 ng/mL mouse IL-3.
as §1

[4] = tested on: 32D FLT3 D835V cells; test: Cell growth assay, 32D FLT3 D835V; assay type: cell-based; conditions: Mus musculus, 48 h, read-out: GI50 value for growth of FLT3 protein-expressing 32D cells
Procedure: as §2, §1

[5] = tested on: 32D FLT3 D835H cells; test: Cell growth assay, 32D FLT3 D835H; assay type: cell-based; conditions: Mus musculus, 48 h, read-out: GI50 value for growth of FLT3 protein-expressing 32D cells
Procedure: as §2, §1

[6] = tested on: 32D FLT3 D835E cells; test: Cell growth assay, 32D FLT3 D835E; assay type: cell-based; conditions: Mus musculus, 48 h, read-out: GI50 value for growth of FLT3 protein-expressing 32D cells
Procedure: as §2, §1

[7] = tested on: 32D FLT3 D835N cells; test: Cell growth assay, 32D FLT3 D835N; assay type: cell-based; conditions: Mus musculus, 48 h, read-out: GI50 value for growth of FLT3 protein-expressing 32D cells
Procedure: as §2, §1

[8] = tested on: 32D FLT3 D835Ins cells; test: Cell growth assay, 32D FLT3 D835Ins; assay type: cell-based; conditions: Mus musculus, 48 h, read-out: GI50 value for growth of FLT3 protein-expressing 32D cells
Procedure: as §2, §1

[9] = tested on: 32D FLT3 Y842C cells; test: Cell growth assay, 32D FLT3 Y842C; assay type: cell-based; conditions: Mus musculus, 48 h, read-out: GI50 value for growth of FLT3 protein-expressing 32D cells
Procedure: as §2, §1

[10] = tested on: 32D FLT3 Y842H cells; test: Cell growth assay, 32D FLT3 Y842H; assay type: cell-based; conditions: Mus musculus, 48 h, read-out: GI50 value for growth of FLT3 protein-expressing 32D cells
Procedure: as §2, §1

[11] = FLT3 D835Y, 2 days with compound
[12] = FLT3 D835V, 2 days with compound
[13] = FLT3 D835H, 2 days with compound
[14] = FLT3 D835E, 2 days with compound
[15] = FLT3 D835N, 2 days with compound
[16] = FLT3 D835Ins (I836 to leucine and aspartic acid), 2 days with compound
[17] = FLT3 Y842C, 2 days with compound
[18] = FLT3 Y842H, 2 days with compound

Compound: C=CC(=O)NCC(=O)Nc1cccc(CNC(=O)c2cnc(NCCc3ccncc3)nc2NCCC)c1 [Compound 1]
- IC50 [1]: 1 to 10 nM

Compound: C=CC(=O)NCC(=O)Nc1cccc(NC(=O)c2cnc(NCCc3ccncc3)nc2NCCC)c1 [Compound 2]
- IC50 [1]: < 1 nM

Compound: C=CC(=O)NCC(=O)Nc1ccccc1CNC(=O)c1cnc(NCCc2ccncc2)nc1NCCC [Compound 3]
- IC50 [1]: 1 to 10 nM

Compound: C=CC(=O)NCC(=O)Nc1cc(Cl)cc(NC(=O)c2cnc(NCCc3ccncc3)nc2NCCC)c1 [Compound 4]
- IC50 [1]: 1 to 10 nM

Compound: CCCNc1nc(NCCc2ccncc2)ncc1C(=O)Nc1cccc(NC(=O)CNC(=O)/C=C/CN(C)C)c1 [Compound 5]
- IC50 [1]: < 1 nM

Compound: C=CC(=O)NCCOc1cccc(NC(=O)c2cnc(NCCc3ccncc3)nc2NCCC)c1 [Compound 6]
- IC50 [1]: 1 to 10 nM

Compound: C=CC(=O)NCC(=O)NCCCNC(=O)c1cnc(NCCc2ccncc2)nc1NCCC [Compound 7]
- IC50 [1]: < 1 nM

Compound: C=CC(=O)N[C@H](C)C(=O)Nc1cccc(NC(=O)c2cnc(NCCc3ccncc3)nc2NCCC)c1 [Compound 8]
- IC50 [1]: 1 to 10 nM

Compound: C=CC(=O)NC(C)(C)C(=O)Nc1cccc(NC(=O)c2cnc(NCCc3ccncc3)nc2NCCC)c1 [Compound 9]
- IC50 [1]: < 1 nM

Compound: C=CC(=O)N(C)CC(=O)Nc1cccc(NC(=O)c2cnc(NCCc3ccncc3)nc2NCCC)c1 [Compound 10]
- IC50 [1]: < 1 nM

Compound: C=CC(=O)NCC(=O)N(C)c1cccc(NC(=O)c2cnc(NCCc3ccncc3)nc2NCCC)c1 [Compound 11]
- IC50 [1]: 1 to 10 nM

Compound: CCCNc1nc(NCCc2ccncc2)ncc1C(=O)Nc1cccc(NC(=O)CNC(=O)/C=C/CN2CCN(C)CC2)c1 [Compound 12]
- IC50 [1]: 1 to 10 nM

Compound: CCCNc1nc(NCCc2ccncc2)ncc1C(=O)Nc1cccc(NC(=O)CNC(=O)/C=C/CN2CCOCC2)c1 [Compound 13]
- IC50 [1]: 1 to 10 nM

Compound: CCCNc1nc(NCCc2ccncc2)ncc1C(=O)Nc1cccc(NC(=O)CNC(=O)/C=C/CN2CCN(CCO)CC2)c1 [Compound 14]
- IC50 [1]: < 1 nM

Compound: C=CC(=O)NCCNc1cccc(NC(=O)c2cnc(NCCc3ccncc3)nc2NCCC)c1 [Compound 15]
- IC50 [1]: 1 to 10 nM

Compound: C=CC(=O)N[C@@H](C)C(=O)Nc1cccc(NC(=O)c2cnc(NCCc3ccncc3)nc2NCCC)c1 [Compound 16]
- IC50 [1]: < 1 nM

Compound: C=CC(=O)NCC(=O)NC(CC)CCNC(=O)c1cnc(NCCc2ccncc2)nc1NCCC (stereo not drawn) [Compound 17]
- IC50 [1]: < 1 nM

Compound: CCCNc1nc(NCCc2ccncc2)ncc1C(=O)NCCC(CC)NC(=O)CNC(=O)/C=C/CN(C)C (stereo not drawn) [Compound 18]
- IC50 [1]: < 1 nM

Compound: C=CC(=O)N(C)CC(=O)NC(CC)CCNC(=O)c1cnc(NCCc2ccncc2)nc1NCCC (stereo not drawn) [Compound 19]
- IC50 [1]: < 1 nM

Compound: CCCNc1nc(NCCc2ccncc2)ncc1C(=O)NCCC(CC)NC(=O)CN(C)C(=O)/C=C/CN(C)C (stereo not drawn) [Compound 20]
- IC50 [1]: < 1 nM

Compound: CCCNc1nc(NCCc2ccncc2)ncc1C(=O)Nc1cccc(NC(=O)CNC(=O)/C=C/CN2CC(C)NC(C)C2)c1 (stereo not drawn) [Compound 21]
- IC50 [1]: < 1 nM

Compound: CCCNc1nc(NCCc2ccncc2)ncc1C(=O)Nc1ccc(C)c(NC(=O)CNC(=O)/C=C/CN(C)C)c1 [Compound 22]
- IC50 [1]: < 1 nM

Compound: CCCNc1nc(NCCc2ccncc2)ncc1C(=O)NCCCNC(=O)CNC(=O)/C=C/CN(C)C [Compound 23]
- IC50 [1]: < 1 nM

Compound: CCCNc1nc(NCCc2ccncc2)ncc1C(=O)Nc1cccc(NC(=O)[C@H](C)NC(=O)/C=C/CN(C)C)c1 [Compound 24]
- IC50 [1]: < 1 nM

Compound: CCCNc1nc(Nc2ccc(C(N)=O)cc2)ncc1C(=O)NCCCNC(=O)[C@H](C)N(C)C(=O)/C=C/CN(C)C [Compound 25]
- IC50 [1]: < 1 nM

Compound: CCCNc1nc(Nc2ccc(C(N)=O)cc2)ncc1C(=O)NC1CCCC(NC(=O)CN(C)C(=O)/C=C/CN(C)C)C1 (stereo not drawn) [Compound 26]
- IC50 [1]: < 1 nM

Compound: CCCNc1nc(Nc2ccc(C(N)=O)cc2)ncc1C(=O)Nc1cccc(NC(=O)[C@H](C)N(C)C(=O)/C=C/CN(C)C)c1 [Compound 27]
- IC50 [1]: < 1 nM

Compound: CCCNc1nc(Nc2ccc3cnccc3c2)ncc1C(=O)Nc1cccc(NC(=O)[C@H](C)N(C)C(=O)/C=C/CN(C)C)c1 [Compound 28]
- IC50 [1]: < 1 nM

Compound: CCCNc1nc(Nc2ccc(C(N)=O)cc2)ncc1C#Cc1cccc(NC(=O)[C@H](C)N(C)C(=O)/C=C/CN(C)C)c1 [Compound 29]
- IC50 [1]: < 1 nM

Compound: CCCNc1nc(NCCc2ccncc2)ncc1C(=O)Nc1cccc(NC(=O)[C@H](C)N(C)C(=O)/C=C/CN(C)C)c1 [Compound 30]
- IC50 [1]: < 1 nM

Compound: CCCNc1nc(Nc2ccc(C(N)=O)cc2)ncc1C#Cc1cccc(NCCNC(=O)/C=C/CN(C)C)c1 [Compound 31]
- IC50 [1]: 1 to 10 nM

Compound: CCCNc1nc(Nc2ccc(C(N)=O)cc2)ncc1C(=O)Nc1cccc(NC(=O)[C@H](C)N(C)C(=O)/C=C/CN2CC(O)C2)c1 [Compound 32]
- IC50 [1]: < 1 nM

Compound: CCCNc1nc(Nc2cccc(C#N)c2)ncc1C#CCCCNC(=O)[C@H](C)N(C)C(=O)/C=C/CN(C)C [Compound 33]
- IC50 [1]: 1 to 10 nM

Compound: CCCNc1nc(Nc2cccc(F)c2)ncc1C#CCCCNC(=O)[C@H](C)N(C)C(=O)/C=C/CN(C)C [Compound 34]
- IC50 [1]: < 1 nM

Compound: CCCNc1nc(NCCc2ccncc2)ncc1C#Cc1cccc(NC(=O)[C@H](C)N(C)C(=O)/C=C/CN(C)C)c1 [Compound 35]
- IC50 [1]: < 1 nM

Compound: C[C@@H](C(=O)Nc1cccc(C#Cc2cnc(NCCc3ccncc3)nc2N2CCOCC2)c1)N(C)C(=O)/C=C/CN(C)C [Compound 36]
- IC50 [1]: < 1 nM

Compound: CCCN(C)c1nc(NCCc2ccncc2)ncc1C#Cc1cccc(NC(=O)[C@H](C)N(C)C(=O)/C=C/CN(C)C)c1 [Compound 37]
- IC50 [1]: < 1 nM

Compound: CCCNc1nc(Nc2cccc(F)c2)ncc1C#C[C@H]1C[C@@H](NC(=O)[C@H](C)N(C)C(=O)/C=C/CN(C)C)C1 [Compound 39]
- IC50 [1]: < 1 nM
- GI50 ([2]; FLT3/FL, 2 days with compound): < 1 nM
- GI50 [3, 11]: 1 to 10 nM
- GI50 [4, 12]: 1 to 10 nM
- GI50 [5, 13]: 1 to 10 nM
- GI50 [6, 14]: < 1 nM
- GI50 [7, 15]: < 1 nM
- GI50 [8, 16]: < 1 nM
- GI50 [9, 17]: 1 to 10 nM
- GI50 [10, 18]: 1 to 10 nM

Compound: C[C@@H](C(=O)N[C@H]1C[C@@H](C#Cc2cnc(Nc3ccc(F)cc3)nc2NC2CC2)C1)N(C)C(=O)/C=C/CN(C)C [Compound 40]
- IC50 [1]: < 1 nM
- GI50 ([2]; FLT3/FL, 2 days with compound): < 1 nM
- GI50 [3, 11]: < 1 nM
- GI50 [4, 12]: < 1 nM
- GI50 [5, 13]: 1 to 10 nM
- GI50 [6, 14]: < 1 nM
- GI50 [7, 15]: < 1 nM
- GI50 [8, 16]: < 1 nM
- GI50 [9, 17]: 1 to 10 nM
- GI50 [10, 18]: 1 to 10 nM

Compound: CNC(=O)c1cc(Oc2ccc(NC(=O)Nc3ccc(Cl)c(C(F)(F)F)c3)cc2)ccn1 [Reference Compound 2, Sorafenib, reference compound]
- GI50 [2]: 10 to 100 nM
- GI50 [3]: > 100 nM
- GI50 [4]: > 100 nM
- GI50 [5]: > 100 nM
- GI50 [6]: 10 to 100 nM
- GI50 [7]: 10 to 100 nM
- GI50 [8]: 10 to 100 nM
- GI50 [9]: > 100 nM
- GI50 [10]: > 100 nM
